Measurements from US20250163104A1, “MACROCYCLIC IMMUNOMODULATORS” (priority 2021, published 2025).
pIC50: −log10 of the molar value. Where a SMILES comes first, the peptide text is derived from it. Bridges are numbered along the chain shown (N, C = ends). [ ]: non-standard residue; d: D form. The star is where a group is joined. ξ: configuration not given here. Bip = N[C@@H](Cc1ccc(-c2ccccc2)cc1)C(=O)O; Phe(3-Cl) = N[C@@H](Cc1cccc(Cl)c1)C(=O)O; Phe(3-Me) = Cc1cccc(C[C@H](N)C(=O)O)c1; Val(3-OH) = CC(C)(O)[C@H](N)C(=O)O; Cha = N[C@@H](CC1CCCCC1)C(=O)O; Cit = NC(=O)NCCC[C@H](N)C(=O)O; Ile(3ξ) = CCC(C)[C@H](N)C(=O)O; Carboxymethyl = O=C(O)C*; Orn = NCCC[C@H](N)C(=O)O; Pra = C#CC[C@H](N)C(=O)O; Dab = NCC[C@H](N)C(=O)O; Dap = NC[C@H](N)C(=O)O

biological target: T1, human PD-1 / PD-L1-Ig binding on Jurkat cell line over-expressing human PD-1 (Jurkat-PD-1) (Homo sapiens, UniProt Q15116); assay: Jurkat-PD-1 Cell Binding High-Content Screening Assay (CBA); assay type: cell-based; conditions: Jurkat-PD-1 cells, PE-labeled PD-L1-Ig 20 nM final; read-out: Jurkat HPD1_PDL1 IC50
T1 construct: expressed in transfected cells; host or cells: Jurkat
T1 sequence (Q15116 25-288): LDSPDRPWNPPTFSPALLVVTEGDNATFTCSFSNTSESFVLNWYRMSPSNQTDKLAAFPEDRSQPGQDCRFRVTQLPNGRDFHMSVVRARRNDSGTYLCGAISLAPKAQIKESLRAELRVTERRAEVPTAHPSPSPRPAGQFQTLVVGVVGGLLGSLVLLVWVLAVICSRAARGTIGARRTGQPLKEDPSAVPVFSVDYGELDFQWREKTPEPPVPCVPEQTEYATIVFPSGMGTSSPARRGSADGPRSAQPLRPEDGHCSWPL
Outline: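 Cell-bound PE-labeled PD-L1-Ig (20 nM final, 1 h) measured by high-content imaging after fixation and Hoechst 33342 counterstain. Compound was applied first for 2 h at 37° C. to Jurkat cells over-expressing human PD-1 in DMEM with 10% FCS.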

SMILES | pIC50
Cc1cccc(C[C@@H]2NC(=O)[C@H](CC(=O)O)NC(=O)[C@H](Cc3ccc(OCC(=O)O)cc3)NC(=O)[C@H](CN)NC(=O)CSC[C@@H](C(=O)N[C@@H](C)C(N)=O)NC(=O)[C@H](Cc3cnc[nH]3)NC(=O)[C@H](C(C)C)NC(=O)[C@H](CC3CCCCC3)NC(=O)[C@H](CCN)NC(=O)[C@@H](CC(C)C)NC(=O)[C@H](CCCN)NC(=O)[C@H](C(C)C)NC(=O)[C@H](Cc3ccc(-c4ccccc4)cc3)NC(=O)[C@H](C(C)C)NC2=O)c1 [Compound 1757] ({CH2CO}-[Dap]Y(Carboxymethyl)D[Phe(3-Me)]V[Bip]V[Orn][dL][Dab][Cha]VHCA-NH2; thioether N-14) | 7.88
C#CC[C@H](NC(=O)CNC(=O)[C@@H]1CSCC(=O)N[C@@H](CCN)C(=O)N[C@@H](Cc2ccc(OCC(=O)O)cc2)C(=O)N[C@@H](CC(=O)O)C(=O)N[C@@H](Cc2c[nH]c3ccccc23)C(=O)N[C@@H](C(C)C)C(=O)N[C@@H](Cc2ccc(-c3ccccc3)cc2)C(=O)N[C@@H](C(C)CC)C(=O)N[C@@H](CCCN)C(=O)N[C@H](CC(C)C)C(=O)N[C@@H](CCN)C(=O)N[C@@H](CC2CCCCC2)C(=O)N[C@@H](C(C)(C)O)C(=O)N[C@@H](CO)C(=O)N1)C(=O)O (stereo partly drawn) [Compound 2322] ({CH2CO}-[Dab]Y(Carboxymethyl)DWV[Bip][Ile(3ξ)][Orn][dL][Dab][Cha][Val(3-OH)]SCG[Pra]-OH; thioether N-14) | 7.11
CC(C)C[C@@H]1NC(=O)[C@H](CCN)NC(=O)[C@@H](CC(C)C)NC(=O)[C@H](CCCN)NC(=O)[C@H](CCCNC(N)=O)NC(=O)[C@H](Cc2ccc(-c3ccccc3)cc2)NC(=O)[C@H](C(C)C)NC(=O)[C@H](Cc2c[nH]c3ccccc23)NC(=O)[C@H](CC(=O)O)NC(=O)[C@H](Cc2ccc(O)cc2)NC(=O)[C@H](CC(N)=O)NC(=O)CSC[C@@H](C(=O)NCC(N)=O)NC(=O)[C@H]([C@@H](C)O)NC(=O)[C@H](C(C)C)NC1=O [Compound 1115] ({CH2CO}-NYDWV[Bip][Cit][Orn][dL][Dab]LVTCG-NH2; thioether N-14) | 7.10

More lines, now with the values ahead:

pIC50 | SMILES
7.48 | CC(C)C[C@H]1NC(=O)[C@H](CCCN)NC(=O)[C@H](CCCNC(N)=O)NC(=O)[C@H](Cc2ccc(-c3ccccc3)cc2)NC(=O)[C@H](C(C)C)NC(=O)[C@H](Cc2c[nH]c3ccccc23)NC(=O)[C@H](CC(=O)O)NC(=O)[C@H](Cc2cccc(Cl)c2)NC(=O)[C@H](CN)NC(=O)CSC[C@@H](C(=O)N[C@@H](C)C(N)=O)NC(=O)[C@H]([C@@H](C)O)NC(=O)[C@H](C(C)C)NC(=O)[C@H](CC2CCCCC2)NC(=O)[C@H](CCN)NC1=O [Compound 2111] ({CH2CO}-[Dap][Phe(3-Cl)]DWV[Bip][Cit][Orn][dL][Dab][Cha]VTCA-NH2; thioether N-14)
6.44 | CC(C)C[C@H]1NC(=O)[C@H](CCCN)NC(=O)[C@H](CCC(=O)O)NC(=O)[C@H](Cc2ccc(-c3ccccc3)cc2)NC(=O)[C@H](C(C)C)NC(=O)[C@H](Cc2c[nH]c3ccccc23)NC(=O)[C@H](CO)NC(=O)[C@H](Cc2ccc(OCC(=O)O)cc2)NC(=O)[C@H](CN)NC(=O)CSC[C@@H](C(=O)N[C@@H](C)C(N)=O)NC(=O)[C@H]([C@@H](C)O)NC(=O)[C@H](C(C)C)NC(=O)[C@H](CC2CCCCC2)NC(=O)[C@H](CCN)NC1=O [Compound 1498] ({CH2CO}-[Dap]Y(Carboxymethyl)SWV[Bip]E[Orn][dL][Dab][Cha]VTCA-NH2; thioether N-14)
8.01 | CC(C)C[C@H]1NC(=O)[C@H](CCCN)NC(=O)[C@H](CCC(=O)O)NC(=O)[C@H](Cc2ccc(-c3ccccc3)cc2)NC(=O)[C@H](C(C)C)NC(=O)[C@H](Cc2c[nH]c3ccccc23)NC(=O)[C@H](CC(=O)O)NC(=O)[C@H](Cc2ccc(C(=O)O)cc2)NC(=O)[C@H](Cc2ccc(OCC(=O)O)cc2)NC(=O)CSC[C@@H](C(=O)N[C@@H](C)C(N)=O)NC(=O)[C@H]([C@@H](C)O)NC(=O)[C@H](C(C)C)NC(=O)[C@H](CC2CCCCC2)NC(=O)[C@H](CCN)NC1=O [Compound 1427]
